One data set deals with KMS20. As to the kind of experiment: Apoptosis of lymphoid malignancy cell lines: KMS20. Conditions: KMS-20; KMS20, Multiple myeloma, 24 hours; read-out: Administration Dose (mean ± SD, μmol/L) Lethal Dose 50 (Apoptosis). Type of data set: cell-based.
In another data set the test system is Jurkat T cells. As to the kind of experiment: Pro-apoptotic activity on Jurkat T cells (FITC-Annexin V / 7-AAD flow cytometry). Conditions: Homo sapiens, 72 hours, cells stained with FITC-Annexin V and 7-AAD among total cells, read-out: Cell Apoptosis Effect to Jurkat T Cell (% in 5 μM). The format is cell-based. Put shortly:
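Jurkat cells at 1.5×10^5 cells/mL in RPMI/10% FBS treated with compounds at […] or 5 μM final for 72 h at 37° C, vehicle containing 1% DMSO. Stained with FITC-Annexin V and 7-AAD for 15 min at room temperature in pH 7.4 Hepes binding buffer. Apoptosis = % double-stained cells by flow cytometry.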
A general note: In flow cytometry, cells or beads pass a laser one at a time.

In data set [1] the test system is acute graft-versus-host disease. Briefly: Acute graft-versus-host disease, mouse model of allogeneic bone marrow transplantation. Type of data set: in vivo. The note with it: 25 mg/kg intraperitoneally daily for 10 days. The source says: Lymph nodes, spleens, both femurs and tibias were aseptically collected from normal C57BL/6 mice (8-12 week old, female, 20-23 g), and T cells were isolated from the lymph nodes and spleens in the same manner as described in Experimental Example 2 and were re-suspended in PBS at a concentration of 8×10^7 cells/mL. The femurs and tibias were cut at the ends, and the bone marrow was flushed from femurs and tibias with RPMI medium using a syringe (21G for femur and 26G for tibia) to extract the marrow, which was then suspended and passed through a cell strainer to make a single cell suspension. The bone marrow cell suspension was centrifuged at 1200 rpm for 5 minutes, and the supernatant was removed, then the cells were added to 1 mL of ACK lysis buffer and vortexed for 1 minute, followed by washing with RPMI medium. […] The incubated cell suspension was added with 5 mL of MACS buffer, centrifuged for 5 minutes, washed, and then re-suspended in 2 mL of MACS buffer. The suspended cells were placed in the autoMACS Pro Separator, and T cells bound to the CD90.2 microbeads were removed. The separated T cell-depleted bone marrow cells (TCD-BM) were washed with PBS and re-suspended in PBS at a concentration of 1×10^8 cells/mL. Normal BDF1 mice (10-12 week old, female, 20-23 g) were irradiated with 850 rad of γ radiation using an irradiator, and then 100 μL of a graft obtained by mixing the C57BL/6 mouse T cells and the TCD-BM at a ratio of 1:1 was injected into the tail vein of the BDF1 mice. In a group treated with compound 229 of the present invention, compound 229 was completely dissolved in a Cremophor EL-ethanol mixture (1:1, v/v) in an amount corresponding to 15% (v/v) of the administration volume, after which the compound solution was diluted in PBS, and the dilution was administered intraperitoneally to each mouse at a dose of 25 mg/kg daily for 10 days from the day of the graft injection. Meanwhile, Tacrolimus that is a currently clinically used immunosuppressive agent was administered to mice of another group in the same amount as compound 229 in order to compare the inhibitory effect on acute graft-versus-host disease, and mice of a vehicle control group were administered with 200 μL of a Cremophor EL-ethanol-PBS (7.5:7.5:85, v/v/v) in the same manner as the treated groups. Then, the survival of mice was monitored daily, and the severity of GVHD was assessed twice a week with clinical GVHD scoring system for each a decrease in weight loss, hunched posture, decreased activity, fur ruffling and skin lesions. Each parameters were scored on a 3-point (0 to 2) scale.

Data set [2] in a line: Toxicity test, single oral dose in ICR male mice. The note with it: mouse, in vivo, read-out: lethal dose 50 (LD50). How it is done:
To ICR male mice, a suspension of Compound 229 in 0.5% methylcellulose solution was administered orally once by each doses of 10 mg/kg, 50 mg/kg and 100 mg/kg, and the survival rate and body weight of the mice were investigated for 7 days. After such administration, mouse death or not, clinical condition and body weight change were monitored. Hematology test and biochemical examination of blood were carried out.

The structures appear in SMILES notation. “And” between values parts separate entries of the source, which are not always exact repeats. Identical values can stand only once.

One may read the LD50 as the dose expected to kill half of the subjects tested.

In the case of `Cc1cc(C)c(OCC(=O)N/N=C/c2ccc3cc[nH]c3c2)c(C2CCOC2)c1` (stereo not drawn) [Compound 229, (E)-N′-((1H-indol-6-yl)methylene)-2-(2,4-dimethyl-6-(tetrahydrofuran-3-yl)phenoxy)acetohydrazide], in the data set with KMS20, the EC50 worked out at 0.74 ± 0.05 µmol/L. Moreover, the cytotoxicity at 5 µM in the data set with Jurkat T cells turned out to be 100%. In data set [1], the “severity of GVHD (clinical scoring system)” value is “slight symptoms of GVHD”. For the same molecule, in data set [1] (final (day 70), vehicle 10%), the survival rate worked out at 80%. Further, the “mouse death, days after cell transplantation” value in data set [1] (vehicle from 29 days) is 35 days and 46 days. The 50% lethal dose (LD50) at 7 days in data set [2] was determined as 100 mg/kg.

(Values after patent US9447083B2, “N-acylhydrazone derivatives for selective T cell inhibitor and anti-lymphoid malignancy drug” (CHONG KUN DANG PHARMACEUTICAL CORP., priority 2012, dated 2016).)
